{
  "source": "patent US20100137313A1",
  "about": "(ASTRAZENECA AB, priority 2008, published 2010)",
  "data": [
    {"biological_target": "S. pneumoniae Topoisomerase IV ATPase (ParE) (Streptococcus pneumoniae serotype 4, UniProt Q59961)", "sequence (Q59961 whole entry)": "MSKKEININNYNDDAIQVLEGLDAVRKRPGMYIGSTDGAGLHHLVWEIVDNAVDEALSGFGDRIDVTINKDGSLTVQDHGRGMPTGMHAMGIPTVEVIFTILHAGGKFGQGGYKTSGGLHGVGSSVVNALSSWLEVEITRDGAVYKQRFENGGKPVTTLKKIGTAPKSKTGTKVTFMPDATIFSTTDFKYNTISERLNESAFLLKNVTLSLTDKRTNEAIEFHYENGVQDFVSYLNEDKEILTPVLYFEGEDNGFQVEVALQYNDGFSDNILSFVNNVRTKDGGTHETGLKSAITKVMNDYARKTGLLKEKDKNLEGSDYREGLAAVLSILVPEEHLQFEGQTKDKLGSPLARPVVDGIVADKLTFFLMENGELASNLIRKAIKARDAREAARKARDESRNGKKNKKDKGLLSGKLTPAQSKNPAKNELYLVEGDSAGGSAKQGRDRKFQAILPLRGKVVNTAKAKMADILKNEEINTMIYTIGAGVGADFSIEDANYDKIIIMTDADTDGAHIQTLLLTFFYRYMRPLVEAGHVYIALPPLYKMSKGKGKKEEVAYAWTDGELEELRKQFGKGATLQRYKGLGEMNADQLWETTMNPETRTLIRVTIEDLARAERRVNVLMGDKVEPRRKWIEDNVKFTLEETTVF", "assay": "S. pneumoniae Topoisomerase IV ATPase inhibition", "assay_type": "biochemical", "conditions": "values marked * are an average of two or more data points, read-out: % Inh (13 μM) of S. pneumoniae Topoisomerase IV ATPase", "procedure,_shortened": "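ParE ATPase (1.25 nM) run with 160 μM ATP and 5 μg/ml sheared salmon sperm DNA in Tris pH 8.0, Mg2+, glycerol, DTT, Brij-35. Phosphate released read by malachite green/molybdate absorbance at 650 nm. IC50 from 10 compound concentrations; DMSO (2%) as 0% and EDTA (20 μM) as 100% inhibition.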", "units": {"inhibition at 13 µM": "%"}, "values": [
      {"compound": "O=C(O)C1CCCN(c2cccc(-c3cnc(Nc4ccc(F)c(Cl)c4)nc3-n3ccc(C(F)(F)F)n3)c2)C1", "note": "(stereo not drawn) [Example 601, 1-(3-{2-[(3-chloro-4-fluorophenyl)amino]-4-[3-(trifluoromethyl)-1H-pyrazol-1-yl]pyrimidin-5-yl}phenyl)piperidine-3-carboxylic acid]", "inhibition at 13 µM": 100},
      {"compound": "COc1cc(Nc2ncc(-c3cnc(OC)c(-c4noc(=O)[nH]4)c3)c(-n3nc(C(F)(F)F)cc3C)n2)cc(OC)c1", "note": "[Example 975, 3-(5-(2-(3,5-dimethoxyphenylamino)-4-(5-methyl-3-(trifluoromethyl)-1H-pyrazol-1-yl)pyrimidin-5-yl)-2-methoxypyridin-3-yl)-1,2,4-oxadiazol-5(4H)-one]", "inhibition at 13 µM": 100},
      {"compound": "CC(=O)c1ccc(-c2cnc(Nc3ccc(F)c(Cl)c3)nc2NCCCN(C)C)s1", "note": "[Example 12, 1-{5-[2-(3-chloro-4-fluorophenylamino)-4-[3-(dimethylamino)propylamino)pyrimidin-5-yl]thiophen-2-yl}ethanone]", "inhibition at 13 µM": 108},
      {"compound": "Cn1cc(CNc2nc(Nc3ccc(F)c(Cl)c3)ncc2-c2cncc(C(=O)O)c2)cn1", "note": "[Example 282, 5-(2-(3-chloro-4-fluorophenylamino)-4-((1-methyl-1H-pyrazol-4-yl)methylamino)pyrimidin-5-yl)nicotinic acid]", "inhibition at 13 µM": 117},
      {"compound": "CCOC(=O)/C=C/c1cccc(-c2cnc(Nc3ccc(F)c(Cl)c3)nc2-n2cnc(Cl)c2Cl)c1", "note": "[Example 161, ethyl (2E)-3-(3-{2-[(3-chloro-4-fluorophenyl)amino]-4-(4,5-dichloro-1H-imidazol-1-yl)pyrimidin-5-yl}phenyl)prop-2-enoate]", "inhibition at 13 µM": 74.8},
      {"compound": "CN(C)CCCNc1nc(Nc2ccc(F)c(Cl)c2)ncc1-c1cncc(-c2noc(=O)[nH]2)c1", "note": "[Example 81, Sodium 3-(5-(2-(3-chloro-4-fluorophenylamino)-4-(3-(dimethylamino)propylamino)pyrimidin-5-yl)pyridin-3-yl)-5-oxo-1,2,4-oxadiazol-4-ide]", "inhibition at 13 µM": 72.6},
      {"compound": "CCOC(=O)c1cncc(-c2cnc(Nc3ccc(F)c(Cl)c3)nc2N2CCC(O)CC2)c1", "note": "[Example 117, ethyl 5-[2-[(3-chloro-4-fluorophenyl)amino]-4-(4-hydroxypiperidin-1-yl)pyrimidin-5-yl]pyridine-3-carboxylate]", "inhibition at 13 µM": 73.4},
      {"compound": "NC(=O)c1cncc(-c2cnc(Nc3ccc(F)c(Cl)c3)nc2NCCc2ccncc2)c1", "note": "[Example 474, 5-(2-[(3-chloro-4-fluorophenyl)amino]-4-{[2-(pyridin-4-yl)ethyl]amino}pyrimidin-5-yl)-pyridine-3-carboxamide]", "inhibition at 13 µM": 100},
      {"compound": "CCN1CC(CNc2nc(Nc3ccc(F)c(Cl)c3)ncc2-c2cnc(OC)nc2)CC1=O", "note": "(stereo not drawn) [Example 467, 4-((2-(3-chloro-4-fluorophenylamino)-2′-methoxy-5,5′-bipyrimidin-4-ylamino)methyl)-1-ethylpyrrolidin-2-one]", "inhibition at 13 µM": 76},
      {"compound": "CC(=O)c1cccc(Nc2ncc(-c3cccc(/C=C/C(=O)O)c3)c(-n3nc(C(F)(F)F)cc3C)n2)c1", "note": "[Example 689, (2E)-3-(3-{2-[(3-acetylphenyl)amino]-4-[5-methyl-3-(trifluoromethyl)-1H-pyrazol-1-yl]pyrimidin-5-yl}phenyl)prop-2-enoic acid]", "inhibition at 13 µM": 99},
      {"compound": "Cc1cc(C(F)(F)F)nn1-c1nc(Nc2ccc(F)c(Cl)c2)ncc1-c1cc(C(=O)O)c(=O)n(CCO)c1", "note": "[Example 1084, 5-(2-(3-Chloro-4-fluorophenylamino)-4-(5-methyl-3-(trifluoromethyl)-1H-pyrazol-1-yl)pyrimidin-5-yl)-1-(2-hydroxyethyl)-2-oxo-1,2-dihydropyridine-3-carboxylic acid]", "inhibition at 13 µM": 100},
      {"compound": "CNc1ncc(-c2cnc(Nc3cc(OC)cc(OC)c3)nc2-n2nc(C(F)(F)F)cc2C)cc1C(=O)O", "note": "[Example 591, 5-(2-(3,5-dimethoxyphenylamino)-4-(5-methyl-3-(trifluoromethyl)-1H-pyrazol-1-yl)pyrimidin-5-yl)-2-(methylamino)nicotinic acid]", "inhibition at 13 µM": 100},
      {"compound": "O=C(O)/C=C/c1cccc(-c2cnc(Nc3ccc(F)c(Cl)c3)nc2N[C@H]2CCOC2)c1", "note": "[Example 942, (S, E)-3-(3-(2-(3-chloro-4-fluorophenylamino)-4-(tetrahydrofuran-3-ylamino)pyrimidin-5-yl)phenyl)acrylic acid]", "inhibition at 13 µM": 100},
      {"compound": "CCS(=O)(=O)NC(=O)c1cc(-c2cnc(Nc3ccc(F)c(Cl)c3)nc2-n2nc(C(F)(F)F)cc2C)cnc1OC", "note": "[Example 1017, 5-(2-(3-Chloro-4-fluorophenylamino)-4-(5-methyl-3-(trifluoromethyl)-1H-pyrazol-1-yl)pyrimidin-5-yl)-N-(ethylsulfonyl)-2-methoxynicotinamide]", "inhibition at 13 µM": 90},
      {"compound": "O=C(O)/C=C/c1cccc(-c2cnc(Nc3ccc(F)c(Cl)c3)nc2NCCn2cccn2)c1", "note": "[Example 267, (2E)-3-[3-(2-[(3-chloro-4-fluorophenyl)amino]-4-{[2-(1H-pyrazol-1-yl)ethyl]amino}pyrimidin-5-yl)phenyl]prop-2-enoic acid]", "inhibition at 13 µM": 87.3},
      {"compound": "CCOC(=O)c1cncc(-c2cnc(Nc3ccc(F)c(Cl)c3)nc2N2CCC(OC)CC2)c1", "note": "[Example 122, ethyl 5-[2-[3-chloro-4-fluorophenyl)amino]-4-(4-methoxypiperidin-1-yl)pyrimidin-5-yl]pyridine-3-carboxylate]", "inhibition at 13 µM": 57.9},
      {"compound": "COc1ccc(-c2cnc(Nc3ccc(F)c(Cl)c3)nc2-n2ccc(C(F)(F)F)n2)cc1C(=O)O", "note": "[Example 1074, 5-(2-(3-Chloro-4-fluorophenylamino)-4-(3-(trifluoromethyl)-1H-pyrazol-1-yl)pyrimidin-5-yl)-2-methoxybenzoic acid]", "inhibition at 13 µM": 100},
      {"compound": "COc1ncc(-c2cnc(Nc3ccc(F)c(Cl)c3)nc2-n2nc(C(F)(F)F)cc2C)cc1C(N)=O", "note": "[Example 1105, 5-(2-(3-chloro-4-fluorophenylamino)-4-(5-methyl-3-(trifluoromethyl)-1H-pyrazol-1-yl)pyrimidin-5-yl)-2-methoxynicotinamide]", "inhibition at 13 µM": 82},
      {"compound": "Cc1cc(C(F)(F)F)nn1-c1nc(Nc2ccc(F)c(Cl)c2)ncc1-c1cnc(OCCc2ccncc2)c(C(=O)O)c1", "note": "[Example 871, 5-(2-(3-chloro-4-fluorophenylamino)-4-(5-methyl-3-(trifluoromethyl) 1H-pyrazol-1-yl)pyrimidin-5-yl)-2-(2-(pyridin-4-yl)ethoxy)nicotinic acid]", "inhibition at 13 µM": 100},
      {"compound": "CCOC(=O)c1cncc(-c2cnc(Nc3ccc(F)c(Cl)c3)nc2N2CCC(O)C2)c1", "note": "(stereo not drawn) [Example 123, ethyl 5-[2-[(3-chloro-4-fluorophenyl)amino]-4-(3-hydroxypyrrolidin-1-yl)pyrimidin-5-yl]pyridine-3-carboxylate]", "inhibition at 13 µM": 66.4},
      {"compound": "COC(=O)c1cccc(-c2cnc(Nc3ccc(F)c(Cl)c3)nc2NCCCN(C)C)c1", "note": "[Example 2, methyl 3-(2-(3-chloro-4-fluorophenylamino)-4-(3-(dimethylamino)propylamino)pyrimidin-5-yl)benzoate]", "inhibition at 13 µM": 77.8},
      {"compound": "COc1cc(Nc2ncc(-c3cnc(OC)c(-c4noc(=S)[nH]4)c3)c(-n3nc(C(F)(F)F)cc3C)n2)cc(OC)c1", "note": "[Example 974, 3-(5-(2-(3,5-dimethoxyphenylamino)-4-(5-methyl-3-(trifluoromethyl)-1H-pyrazol-1-yl)pyrimidin-5-yl)-2-methoxypyridin-3-yl)-1,2,4-oxadiazol-5(4H)-thione]", "inhibition at 13 µM": 89},
      {"compound": "COc1ncc(-c2cnc(Nc3ccc(F)c(Cl)c3)nc2-n2nc(C(F)(F)F)cc2C)cc1C(=O)O", "note": "[Example 1067, 5-(2-(3-chloro-4-fluorophenylamino)-4-(5-methyl-3-(trifluoromethyl)-1H-pyrazol-1-yl)pyrimidin-5-yl)-2-methoxynicotinic acid]", "inhibition at 13 µM": 98},
      {"compound": "CS(=O)(=O)NC(=O)c1cncc(-c2cnc(Nc3ccc(F)c(Cl)c3)nc2-n2ccc(C(F)(F)F)n2)c1", "note": "[Example 874, 5-(2-(3-chloro-4-fluorophenylamino)-4-(3-(trifluoromethyl)-1H-pyrazol-1-yl)pyrimidin-5-yl)-N-(methylsulfonyl)nicotinamide]", "inhibition at 13 µM": 100},
      {"compound": "CN(C)C(=O)c1cccc(-c2cnc(Nc3ccc(F)c(Cl)c3)nc2-n2ccc(C(F)(F)F)n2)c1", "note": "[Example 1148, 3-(2-(3-chloro-4-fluorophenylamino)-4-(3-(trifluoromethyl)-1H-pyrazol-1-yl)pyrimidin-5-yl)-N,N-dimethylbenzamide]", "inhibition at 13 µM": 24},
      {"compound": "Fc1ccc(Nc2ncc(-c3cncnc3)c(-n3nnc4ccccc43)n2)cc1Cl", "note": "[Example 89, 4-(1H-benzotriazol-1-yl)-N-(3-chloro-4-fluorophenyl)-5,5′-bipyrimidin-2-amine]", "inhibition at 13 µM": 85.3},
      {"compound": "Fc1ccc(Nc2ncc(-c3cncnc3)c(N3CCCCCC3)n2)cc1Cl", "note": "[Example 213, 4-(azepan-1-yl)-N-(3-chloro-4-fluorophenyl)-5-pyrimidin-5-ylpyrimidin-2-amine]", "inhibition at 13 µM": 55.8},
      {"compound": "COc1cc(C)cc(Nc2ncc(-c3cnc(OC)c(C(=O)NS(C)(=O)=O)c3)c(-n3nc(C(F)(F)F)cc3C)n2)c1", "note": "[Example 857, 2-methoxy-5-{2-[(3-methoxy-5-methylphenyl)amino]-4-[5-methyl-3-(trifluoromethyl)-1H-pyrazol-1-yl]pyrimidin-5-yl}-N-(methylsulfonyl)pyridine-3-carboxamide]", "inhibition at 13 µM": 100},
      {"compound": "COCCCNc1nc(Nc2ccc(F)c(Cl)c2)ncc1-c1nc(C)c(C(=O)OC)s1", "note": "[Example 505, methyl 2-{2-[(3-chloro-4-fluorophenyl)amino]-4-[(3-methoxypropyl)amino]pyrimidin-5-yl}-4-methyl-1,3-thiazole-5-carboxylate]", "inhibition at 13 µM": 19},
      {"compound": "COCCCNc1nc(Nc2ccc(F)c(Cl)c2)ncc1-c1nc(-c2ccn(C)n2)c(C(=O)O)s1", "note": "[Example 512, 2-{2-[(3-chloro-4-fluorophenyl)amino]-4-[(3-methoxypropyl)amino]pyrimidin-5-yl}-4-(1-methyl-1H-pyrazol-3-yl)-1,3-thiazole-5-carboxylic acid]", "inhibition at 13 µM": 100}
    ]}
  ]
}
